Experimental data taken from US6322962A, “Sterol-regulated Site-1 protease and assays of modulators thereof” (Board of Regents, The University of Texas System, priority 1999, dated 2001).
Square brackets hold non-standard residues; d marks the D form. Peptide text beside a SMILES is read from it. * marks the point of attachment. AMC = Cc1cc(=O)oc2cc(N*)ccc12; Nle = CCCC[C@H](N)C(=O)O

How the values were obtained:
[1] = biological target: T1, purified S1P(983)-C (Cricetulus griseus, UniProt Q9Z2A8, T875N); assay: Fluorogenic peptide assay for S1P activity (cleavage of MCA-conjugated peptides); format: biochemical, hamster; conditions: for Relative Activity: Ac-VFRSLK-MCA set at 1.0; for cleavage of the peptide: result in words
T1 construct: Truncated S1P (amino acids 1-983); GGR linker (NotI site); made in house; host or cells: SRD-12B cells (mutant CHO cells lacking S1P) stably transfected with pCMV-S1P(983)-Myc-His (TR-3117, 'S1P(983) cells'); secreted into the medium and purified on Ni-NTA
T1 sequence (Q9Z2A8 187-983 T875N): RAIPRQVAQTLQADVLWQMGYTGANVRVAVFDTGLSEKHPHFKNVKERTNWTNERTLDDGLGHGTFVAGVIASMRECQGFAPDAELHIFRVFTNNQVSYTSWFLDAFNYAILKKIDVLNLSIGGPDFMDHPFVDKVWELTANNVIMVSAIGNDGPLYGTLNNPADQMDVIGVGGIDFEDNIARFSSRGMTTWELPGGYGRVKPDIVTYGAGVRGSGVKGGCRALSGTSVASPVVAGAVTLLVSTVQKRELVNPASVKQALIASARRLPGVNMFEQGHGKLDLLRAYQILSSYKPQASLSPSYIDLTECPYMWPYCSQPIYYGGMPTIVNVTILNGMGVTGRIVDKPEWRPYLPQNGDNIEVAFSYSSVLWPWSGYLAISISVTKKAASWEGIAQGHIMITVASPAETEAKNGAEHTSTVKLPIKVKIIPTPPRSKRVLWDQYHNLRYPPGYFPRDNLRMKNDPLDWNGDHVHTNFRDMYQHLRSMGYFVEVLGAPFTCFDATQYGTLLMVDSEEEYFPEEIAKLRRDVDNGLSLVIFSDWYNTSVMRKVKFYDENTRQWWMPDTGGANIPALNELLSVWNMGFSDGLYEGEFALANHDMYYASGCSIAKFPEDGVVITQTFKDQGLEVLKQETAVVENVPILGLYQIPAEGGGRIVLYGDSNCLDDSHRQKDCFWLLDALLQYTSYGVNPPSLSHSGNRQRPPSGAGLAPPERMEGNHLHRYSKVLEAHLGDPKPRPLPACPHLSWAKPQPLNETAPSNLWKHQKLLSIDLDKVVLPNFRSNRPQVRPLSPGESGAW
Description: (§1) Fluorogenic Peptide Assay for S1P Activity
S1P activity was measured fluorometrically with MCA-conjugated peptidyl substrates. Each reaction was carried out in 0.2 ml of assay buffer (25 mM Tris, 25 mM Mes, 25 mM acetic acid, and 1 mM CaCl2 adjusted to pH 8.0 with concentrated NaOH). Reactions contained MCA-peptide (final concentration 100 μM, added in 2 μl DMSO) and […] of purified S1P(983)-C. After incubation for 0.5-5 h at 37° C., each reaction was terminated by addition of 1 ml of ice-cold 5 mM sodium EDTA. The liberated 7-amino-4-methyl-coumarin (AMC) was measured with a Perkin-ElmerLS-30 luminescence spectrometer (360 nm excitation, 460 nm emission). A standard curve of fluorescence intensity was generated with different concentrations of AMC (Promega).
Similar substrates have been used to assay furin, prohormone convertases, and other subtilisin-related enzymes (Nakayama, 1997). […] The sequence of this peptide corresponds to the sequence at Site-B of S1P, which is known to be cleaved by S1P in an autocatalytic reaction. Fluorescence rose linearly with time for 5 h. […] This differs from the observations with furin and the prohormone convertases, whose pH optima are generally in the range of 6-7 (Nakayama, 1997).
The indicated fluorogenic peptide-MCA (100 μM) was incubated with 3 μg of purified S1P(983)-C at 37° C. for 5 h. The S1P activity of Ac-VFRSLK-MCA (SEQ ID NO:13, 930 pmol per min/mg protein) was set at 1.0, and the activity of the other substrates was expressed relative to this value. Each value represents the average of duplicate incubations, which varied from each other by <10%.

[2] = biological target: T1, purified S1P(983)-C; assay: Effect of protease inhibitors on S1P(983)-C mediated cleavage of Ac-VFRSLK-MCA; format: biochemical, hamster; conditions: for inhibition of S1P(983)-C: result in words
Description: as §1
S1P activity was measured fluorometrically with MCA-conjugated peptidyl substrates. […] After incubation for 0.5-5 h at 37° C., each reaction was terminated by addition of 1 ml of ice-cold 5 mM sodium EDTA. The liberated 7-amino-4-methyl-coumarin (AMC) was measured with a Perkin-ElmerLS-30 luminescence spectrometer (360 nm excitation, 460 nm emission). A standard curve of fluorescence intensity was generated with different concentrations of AMC (Promega).

[3] = 100 μM peptide-MCA, 3 μg S1P(983)-C, 37° C., 5 h
[4] = 0.1 mM, 100 μM Ac-VFRSLK-MCA, 37° C., 5 h
[5] = 1 mM, 100 μM Ac-VFRSLK-MCA, 37° C., 5 h
[6] = 10 mM, 100 μM Ac-VFRSLK-MCA, 37° C., 5 h
[7] = pH 8, 0.1 mM, 100 μM Ac-VFRSLK-MCA, 37° C., 5 h, read-out: AMC Liberated, % control
[8] = pH 8, 10 mM, 100 μM Ac-VFRSLK-MCA, 37° C., 5 h, read-out: AMC Liberated, % control

Q: `CC(=O)N[C@@H](CO)C(=O)NCC(=O)N[C@@H](CO)C(=O)NCC(=O)N[C@@H](CCCNC(=N)N)C(=O)N[C@@H](CO)C(=O)N[C@H](C(=O)N[C@@H](CC(C)C)C(=O)Nc1ccc2c(C)cc(=O)oc2c1)C(C)C` (Ac-SGSGRSVL-{AMC}) was tested. Which “Relative Activity” value [1, 3] did it give?
A: Its value is < 0.1.

Q: With `O[C@H](CS)[C@H](O)CS` (racemic) [Dithiothreitol] as the compound, how does the “AMC Liberated” value [2, 4] read?
A: The value was 615 pmol/tube.

Q: And the “AMC Liberated” value [2, 5]?
A: Its value is 323 pmol/tube.

Q: What about the “AMC Liberated” value [2, 6] of the same compound?
A: The value was 99 pmol/tube.

Q: What about the remaining activity at 100 µM [2, 7] of the same compound?
A: The remaining activity at 100 µM was 73%.

Q: And the remaining activity at 1000 µM ([2]; pH 8, 1 mM, 100 μM Ac-VFRSLK-MCA, 37° C., 5 h, read-out: AMC Liberated, % control)?
A: The remaining activity at 1000 µM was 38%.

Q: What about the remaining activity at 10000 µM [2, 8] of the same compound?
A: The remaining activity at 10000 µM was 12%.

Q: `c1cnc2c(c1)ccc1cccnc12` [1,10-Phenanthroline, 1,10-phenanthroline] was tested. Which “AMC Liberated” value ([2]; 3 mM, 100 μM Ac-VFRSLK-MCA, 37° C., 5 h) did it give?
A: Its value is 361 pmol/tube.

Q: And the “AMC Liberated” value [2, 6]?
A: The value was 253 pmol/tube.

Q: And the remaining activity at 3000 µM ([2]; pH 8, 3 mM, 100 μM Ac-VFRSLK-MCA, 37° C., 5 h, read-out: AMC Liberated, % control)?
A: Its remaining activity at 3000 µM is 43%.

Q: And the remaining activity at 10000 µM [2, 8]?
A: Its remaining activity at 10000 µM is 30%.

Q: What about the “inhibition of S1P(983)-C” value [2] of the same compound?
A: The value was “partially inhibited”.

Q: With `CCCC[C@@H](C=O)NC(=O)[C@H](CC(C)C)NC(=O)[C@H](CC(C)C)NC(C)=O` [ALLN, N-acetyl-leucinal-leucinal-norleucinal] (Ac-Leu-Leu-[Nle]-aldehyde) as the compound, how does the “AMC Liberated” value [2, 4] read?
A: Its value is 811 pmol/tube.

Q: And the remaining activity at 100 µM [2, 7]?
A: The remaining activity at 100 µM was 97%.

Q: What about the “inhibition of S1P(983)-C” value [2] of the same compound?
A: Its value is “resistant”.

Q: `N=C(N)c1ccc(CS(=O)(=O)F)cc1` [APMSF, (4-amidinophenyl)-methancsulfonyl fluoride] was tested. Which “AMC Liberated” value [2, 5] did it give?
A: Its value is 793 pmol/tube.

Q: What about the “AMC Liberated, % control” value [2, 5] of the same compound?
A: The value was 95 % control.

Q: And the “inhibition of S1P(983)-C” value [2]?
A: Its value is “resisted”.

Q: What does the source list for `CC(=O)N[C@@H](CCCNC(=N)N)C(=O)N[C@@H](CO)C(=O)N[C@@H](CC(C)C)C(=O)N[C@@H](CCCCN)C(=O)Nc1ccc2c(C)cc(=O)oc2c1` [Ac-RSLK-MCA, Ac-Arg-Ser-Leu-Lys-MCA] (Ac-RSLK-{AMC})?
A: Relative Activity [1, 3]: 0.47; cleavage of the peptide [1]: cleaves

Q: What does the source list for `CC(=O)N[C@@H](CO)C(=O)NCC(=O)N[C@@H](CCCNC(=N)N)C(=O)N[C@@H](CO)C(=O)N[C@H](C(=O)N[C@@H](CC(C)C)C(=O)Nc1ccc2c(C)cc(=O)oc2c1)C(C)C` [Ac-SGRSVL-MCA, Ac-Ser-Gly-Arg-Ser-Val-Leu-MCA] (Ac-SGRSVL-{AMC})?
A: Relative Activity [1, 3]: < 0.1; cleavage of the peptide [1]: did not cleave

Q: For `CC(=O)N[C@H](C(=O)N[C@@H](Cc1ccccc1)C(=O)N[C@@H](C)C(=O)N[C@@H](CO)C(=O)N[C@@H](CC(C)C)C(=O)N[C@@H](CCCCN)C(=O)Nc1ccc2c(C)cc(=O)oc2c1)C(C)C` [Ac-VFASLK-MCA, Ac-Val-Phe-Ala-Ser-Leu-Lys-MCA] (Ac-VFASLK-{AMC}), which “Relative Activity” value [1, 3] is on record?
A: The value was < 0.1.

Q: What about the “cleavage of the peptide” value [1] of the same compound?
A: Its value is “no detectable cleavage”.

Q: How did the S1P activity [1, 3] turn out when `CC(=O)N[C@H](C(=O)N[C@@H](Cc1ccccc1)C(=O)N[C@@H](CCCNC(=N)N)C(=O)N[C@@H](CO)C(=O)N[C@@H](CC(C)C)C(=O)N[C@@H](CCCCN)C(=O)Nc1ccc2c(C)cc(=O)oc2c1)C(C)C` [Ac-VFRSLK-MCA, Ac-Val-Phe-Arg-Ser-Leu-Lys-MCA] (Ac-VFRSLK-{AMC}) was run?
A: Its S1P activity is 930 pmol per min/mg protein.

Q: What about the “Relative Activity” value [1, 3] of the same compound?
A: The value was 1.0.

Q: And the “cleavage at pH 6” value ([1]; pH 6)?
A: Its value is “very little cleavage”.

Q: And the “pH of maximal rate of cleavage” value ([1]; pH curve, FIG. 22C)?
A: Its value is 8 pH.

Q: And the “time over which fluorescence rose linearly” value ([1]; purified secreted S1P(983)-C, 37° C.)?
A: The value was 5 h.
